In US20240376094A2, “SELECTIVE BCL-XL PROTAC COMPOUNDS AND METHODS OF USE” (Les Laboratoires Servier, priority 2021, published 2024):

Experiments:
Format in all cases: cell-based
endogenous BCL-xL = target: T1, endogenous BCL-xL (Homo sapiens, UniProt Q07817); test: Degradation of endogenous BCL-xL in COR-L105 (ProteinSimple Jess); conditions: COR-L105, 24 h, COR-L105, dose 300 nM, read-out: % BCL-xL vs. Untreated, COR-L105
T1 construct: endogenous in cells; host or cells: COR-L105 (ECACC No. 92031918); NCI-H1650 (ATCC No. CRL-5883)
T1 sequence (Q07817 whole entry): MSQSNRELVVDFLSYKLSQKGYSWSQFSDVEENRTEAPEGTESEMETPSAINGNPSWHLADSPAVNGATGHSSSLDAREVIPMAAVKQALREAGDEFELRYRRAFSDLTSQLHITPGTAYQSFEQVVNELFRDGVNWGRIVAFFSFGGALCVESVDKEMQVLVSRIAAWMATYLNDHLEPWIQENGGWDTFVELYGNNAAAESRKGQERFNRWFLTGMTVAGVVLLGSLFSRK
Outline: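 COR-L105 cells (2,000,000/well) treated 24 h at 37 °C with compound at 100–300 nM final, singlet, alongside untreated cells. RIPA lysates normalized by BCA to 1.5 mg/mL, then BCL-xL detected by capillary immunoassay (2–40 kDa Jess) comparing treated with untreated lysates.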

COR-L105 = test: CellTiter-Glo proliferation assay, COR-L105; conditions: Homo sapiens, COR-L105, 120 h, COR-L105, 5 days
Outline: (§1)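 Both lines grown in RPMI-1640 + 10% FBS. COR-L105 plated flat at 1,000 cells/well overnight; NCI-H1650 grown as spheroids, 3,000 cells/well, 72 h. Compounds at 0.508 nM-10 μM final for 5 days, 37° C. ATP read by CellTiter-Glo (3D version for spheroids); IC50 from variable-slope fit normalized to untreated cells.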

NCI-H1650 = test: CellTiter-Glo 3D proliferation assay, NCI-H1650 spheroids; conditions: Homo sapiens, NCI-H1650, 120 h, 5 days
Outline: as §1

remaining activity at 0.3 µM (endogenous BCL-xL): 47.9% | IC50 (NCI-H1650): 0.00575 µM
Structure (SMILES): Cc1ncsc1-c1ccc(CNC(=O)[C@@H]2C[C@@H](O)CN2C(=O)[C@@H](NC(=O)C2(F)CC2)C(C)(C)C)c(OCC(=O)N(C)CCCCCN2CCN(CC#Cc3ccc(OCCCc4sc(N5CCCc6c5nnc(Nc5nc7ccccc7s5)c6C)nc4C(=O)O)c(F)c3)CC2)c1 [Example 54, 2-(3-(benzo[d]thiazol-2-ylamino)-4-methyl-6,7-dihydropyrido [2,3-c]pyridazin-8(5H)-yl)-5-(3-(2-fluoro-4-(3-(4-(5-(2-(2-(((2S,4R)-1-((S)-2-(1-fluorocyclopropane-1-carboxamido)-3,3-dimethylbutanoyl)-4-hydroxypyrrolidine-2-carboxamido)methyl)-5-(4-methylthiazol-5-yl)phenoxy)-N-methylacetamido)pentyl)piperazin-1-yl)prop-1-yn-1-yl)phenoxy)propyl)thiazole-4-carboxylic acid]
IC50 (COR-L105): 0.0316 µM | Emax (COR-L105; read-out: COR-L105 Span (max)): 91.9% | Emax (NCI-H1650; read-out: NCI-H1650 Span (Amax)): 76.7%
